# Experimental data reported in publication PMC10108392, “Rimonabant-Based Compounds Bearing Hydrophobic Amino Acid Derivatives as Cannabinoid Receptor Subtype 1 Ligands” (ACS Medicinal Chemistry Letters, 2023).
# “Also recorded” adds a separate entry of the source.
# Tests used:
# CB1R = target: T1, CB1R (Rattus norvegicus, UniProt P20272); test: [3H]WIN55,212-2 radioligand competition binding assay in rat brain membrane homogenate; conditions: read-out: Ki [3H]WIN55,212-2 binding, 5 nM [3H]WIN55,212-2, ± SEM, n.b. = no binding of ligands was observed
# T1 construct: Crude membrane fractions were prepared from the brain; from tissue; host or cells: Wistar rat whole brain, crude membrane fraction
# T1 sequence (P20272 whole entry): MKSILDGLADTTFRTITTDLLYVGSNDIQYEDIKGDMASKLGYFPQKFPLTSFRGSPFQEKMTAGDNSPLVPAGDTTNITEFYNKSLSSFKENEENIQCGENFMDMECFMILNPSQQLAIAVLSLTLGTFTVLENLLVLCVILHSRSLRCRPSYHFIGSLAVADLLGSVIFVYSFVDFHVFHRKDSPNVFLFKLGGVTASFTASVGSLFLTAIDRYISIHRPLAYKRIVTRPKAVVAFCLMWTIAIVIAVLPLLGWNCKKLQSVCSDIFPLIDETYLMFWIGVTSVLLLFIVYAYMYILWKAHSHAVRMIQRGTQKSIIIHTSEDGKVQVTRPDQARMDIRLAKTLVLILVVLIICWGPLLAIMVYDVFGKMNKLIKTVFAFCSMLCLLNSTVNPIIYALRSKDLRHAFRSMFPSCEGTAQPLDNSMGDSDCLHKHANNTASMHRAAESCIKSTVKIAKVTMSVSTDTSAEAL
# Description: Our novel chemical compounds were tested in vitro for their binding ability, efficacy, and potency on CB1R in rat brain membrane homogenate (Table 2 and SI, Figure S1). CB1Rs are the most abundant G-protein coupled receptors in the rodent and mammalian brain; therefore, this is an appropriate model to characterize our ligands in a more physiological system.
# In Vitro Biological Assays
# Preparation of Brain Membrane Homogenates
# Wistar rats were locally bred and handled according to the EU Directive 2010/63/EU and to the Regulations on Animal Protection (40/2013. (II. 14.) Korm. r.) of Hungary. Crude membrane fractions were prepared from the brain. Brains were quickly removed from the euthanized rats and directly put in an ice-cold 50 mM Tris-HCl buffer (pH 7.4). The collected tissue was then homogenized in 30 volumes (v/w) of an ice-cold buffer with a Braun Teflon-glass homogenizer at the highest rpm. The homogenate was centrifuged at 20,000 × g for 25 min, and the resulting pellet was suspended in the same volume of a cold buffer followed by incubation at 37 °C for 30 min to remove endogenous ligands. Centrifugation was then repeated. The final pellets were taken up in five volumes of a 50 mM Tris-HCl (pH 7.4) buffer containing 0.32 M sucrose and stored at -80 °C. Prior to the experiment, aliquots were thawed and centrifuged at 20,000 ×g for 25 min and then they were resuspended in 50 mM Tris-HCl (pH 7.4), homogenized with a Douncer, followed by the determination of the protein concentration by the method of Bradford. The membrane suspensions were immediately used either in radioligand binding experiments or in [35S]GTPγS functional assays.
# Radioligand Competition Binding Assay
# Binding experiments were performed at 30 °C for 60 min in a 50 mM Tris-HCl binding buffer (pH 7.4) containing 2.5 mM of EGTA, 5 mM of MgCl2 and 0.5 mg/mL of fatty acid-free BSA in plastic tubes in a total assay volume of 1 mL that contained 0.3-0.5 mg/mL of a membrane protein. Competition binding […]
# ligands. […] The incubation […]
# was terminated by diluting the samples with an ice-cold wash buffer (50 mM of Tris-HCl, 2.5 mM of EGTA, 5 mM of MgCl2, 0.5% fatty acid free BSA, pH 7.4), followed by repeated washing and rapid filtration through Whatman GF/B glass fiber filters (Whatman Ltd., Maidstone, UK) pre-soaked with 0.1% polyethyleneimine (30 min before the filtration). Filtration was performed with a 24-well Brandel Cell Harvester (Gaithersburg, MD, USA). Filters were air-dried and immersed into Ultima Gold MV scintillation cocktail, and then radioactivity was measured with a TRI-CARB 2100TR liquid scintillation analyzer (Packard, Perkin Elmer, Waltham, MA, USA). […]
# The results of the competition binding studies are reported as means ± S.E.M. of at least three independent experiments each performed in duplicate. In competition binding studies, the inhibitory constants (Ki) were calculated from the inflection points of the displacement curves using non-linear least-square curve fitting and the Cheng-Prusoff equation, Ki= […]/(1 + [ligand]/Kd). […]
# mice [1] = test: Feeding test (food intake); type: in vivo, mouse; conditions: 10 mg/kg i.p., 1-h test, vs vehicle
# Description: The tested compounds were injected i.p. (10 mg/kg), and after leaving for 30 min to allow the drug assimilation, mice were placed into individual cages with access to a predefined amount of their standard lab chow (2 g) for the 1-h test.
# (§1) In Vivo Biological Assays
# The international and national law and policies approved by Italian Ministry of Health were used to comply with all animal care and experimental procedures. Animal studies were advised in compliance with the ARRIVE guidelines and with the recommendations made by EU Directive 2010/63/EU for animal experiments and the Basel declaration including the 3Rs concept. CD-1 male mice (10-14 weeks of age, 25-30 g of weight) were bought from Charles River (Milan, Italy). Shortly after their arrival and for at least one week, they were kept in an animal care facility under controlled standard conditions of temperature (21 ± 1 °C), light (from 7:00 AM to 7:00 PM), and relative humidity (60 ± 10%). Access to drinking water and food was assured. All procedures were performed to decrease the number of animals used (n = 7 per group) and their distress.
# The test was carried out as previously described. At 24 h before the start of a feeding test, all food was removed from the home cages of mice to be tested. The next day and at least 1 h before the feeding test began, the mice were transported to the laboratory. On test days, the animals were placed in the home cages for 30 min of drug assimilation, during which food was not available. Then compounds were intraperitoneally administered (10 mg/kg). Mice were transferred into transparent and individual plastic cages with thick white paper lining the bottom and access to a pre-measured amount of their regular lab chow (2 gr) for the 1-h test. At the end of 1 h, mice were repositioned into their home cage. The amount of food left in the trial cage, including crumbs, was measured, and the amount consumed was calculated.
# Feeding trials normally happened on Tuesdays and Fridays between 12:00 and 14:00 h. […]
# mice [2] = test: Hot plate test; type: in vivo, mouse; conditions: 10 μg/10 μL i.c.v., 15-120 min
# From the text: as §1
# The international and national law and policies approved by Italian Ministry of Health were used to comply with all animal care and experimental procedures. Animal studies were advised in compliance with the ARRIVE guidelines and with the recommendations made by EU Directive 2010/63/EU for animal experiments and the Basel declaration including the 3Rs concept. CD-1 male mice (10-14 weeks of age, 25-30 g of weight) were bought from Charles River (Milan, Italy). […]
# The test was carried out as previously described. […] Mice were transferred into transparent and individual plastic cages with thick white paper lining the bottom and access to a pre-measured amount of their regular lab chow (2 gr) for the 1-h test. […] The amount of food left in the trial cage, including crumbs, was measured, and the amount consumed was calculated. […]
# Thermal nociception (hot-plate test) was assessed with a commercially available apparatus consisting of a metal plate 25x25 cm (Ugo Basile, Italy) heated to a constant temperature of 55.0 ± 0.1 °C, on which a plastic cylinder (20 cm diameter, 18 cm high) was placed. The time of latency (s) was recorded from the moment the animal was placed in the cylinder on the hot plate until it licked its paws or jumped; the cut-off time was 60 s. […] The time course of latency was then determined at 15, 30, 45, 60, 90 and 120 min after compound treatment. […]
smiles,measurement,setting,value
"CNC(=O)[C@@H](NC(=O)c1nn(-c2ccc(Cl)cc2)c(-n2cccc2)c1C)C(C)(C)C [Compound 34, RS2691-tLeu-NHCH3]",Ki,CB1R,6.9 ± 1.8 nM
same,food intake,mice [1],increase food intake; also recorded: increased the food intake; also recorded: significant orexic effect
same,anti-nociceptive effect in hot plate test (%MPE),mice [2],strong and long-lasting anti-nociceptive effect; also recorded: more potent than that of the reference compound
